According to patent US20110206673A1, “POLYPEPTIDES AND POLYNUCLEOTIDES FOR ARTEMIN AND RELATED LIGANDS, AND METHODS OF USE THEREOF” (priority 2007, published 2011):

Key:
[1] = test system: MCF-7 cells; experiment: Soft agar growth assay (96-well, MTT readout); type: cell-based, human
Method: To perform soft agar colony formation assays, 50 μl of 0.5% agarose in serum containing medium was plated onto each well of 96-well flat-bottom microplates, as a base agar layer. Next, 5×10^3 cells in a 100 μl mixture of 0.35% agarose in serum containing medium were plated onto the base layer. Subsequently, 100 μl of the medium was added to prevent drying of the agarose gels. For antibody treatment, the antibodies at the indicated concentrations were added into the top agar layer and the culture medium to ensure the complete exposure of cells to antibodies. The plates were incubated at 37° C. in a humidified incubator. The top culture medium including the antibodies was changed every 3 days. After 10 days, 20 μl of 5 mg/ml MTT (Sigma Chemical Company, St Louis, Mo., USA) was added into each well and incubated at 37° C. for 4 hours followed by adding 100 μl of acidified lysis buffer (0.01% HCl in 10% SDS). The plate was incubated at 42° C. to ensure a homogenous mixture. The plate was shaken briefly and then read at 595 nm (test wavelength) and 690 nm (reference wavelength) using the Synergy™ 2 Multi-Mode Microplate Reader (BioTek instruments, Inc., Vermont, USA).

[2] = test system: MCF7-ARTN and MCF7-Vec cells; experiment: MTT assay of chemotherapy drug induced death; type: cell-based, human; conditions: 10% serum; both MCF7-ARTN and MCF7-Vec cells
Method: MTT (3-[4,5-dimethylthiazol-2-yl]-2,5-diphenyl tetrazolium bromide) assays were used measure cell proliferation. Cells were seeded into 96 well flat bottom tissue culture microplates in 100 μl RPMI-1640 culture medium containing 10% FBS at a concentration of 5×10^3 cells/well. On assay day, 10 μl of the MTT labelling reagent was added at a final concentration 0.5 mg/ml to each well and the cells were labelled for 5 h in the incubator. At the end of the incubation period, the media was removed and the converted dye was solubilised with 100 μl solubilising solution (0.01N HCl in 10% SDS in water). The plates were then sealed and placed at 37° C. overnight to completely solubilise the purple formazan crystals. The absorbance of the converted dye was measured using Spectra Max 250 multiplate reader at a wavelength of 570 nm with background subtraction at 650 nm. Each treatment was performed at least in triplicate.

[3] = test system: MCF7-ARTN and MCF7-Vec cells; experiment: Soft agar colony formation in the presence of Tamoxifen (six-well); type: cell-based, human; conditions: 1 μM and 5 μM
Method: For soft agar colony formation assay, cells were cultured in 6-well plates first covered with a layer of agar (0.5%). Cells were grown in RPMI 1640 media containing 10% FBS. The middle layer included 5×10^3 cells in 0.35% agar in RPMI 1640 media containing 10% FBS. Media was added as the top layer to prevent drying of the agarose gels. The plates were incubated at 37° C. in a humidified incubator for 14 days. After this, cells were stained with 0.5 ml of 0.005% crystal violet in distilled water for 1 h and distained for 2 h in water. Colonies were inspected and photographed.

[4] = test system: MCF-7 breast cancer cells; conditions: cited from earlier work

| Structure (SMILES) | soft agar growth compared with controls ([1]; Faslodex (ICI 182,780) 100 nM alone) [%] | soft agar growth compared with controls ([1]; Tamoxifen 1 μM alone) [%] | cell death (MTT viability) [2] | number of colonies formed in soft agar [3] | effect at lower concentrations ([4]; 0.1-1 μM) | effect at pharmacological concentrations ([4]; above 5 μM) |
| --- | --- | --- | --- | --- | --- | --- |
| C[C@]12CC[C@@H]3c4ccc(O)cc4C[C@@H](CCCCCCCCC[S+]([O-])CCCC(F)(F)C(F)(F)F)[C@H]3[C@@H]1CC[C@@H]2O (stereo partly drawn) [Faslodex, Faslodex (ICI 182,780)] | 55.8 |  |  |  |  |  |
| CC/C(=C(\c1ccccc1)c1ccc(OCCN(C)C)cc1)c1ccccc1 [Tamoxifen] |  | 40.4 | caused cell death in a dose dependent manner | reduced the number of colonies | induce a cell-cycle arrest | induce apoptosis |
